Reference: a melting point compilation (Tetko et al.; mined from patent text by program, amines drawn as free bases though some values may be those of a salt)

melting point [°C]	SMILES
131 to 133	O=C(Nc1ccc(C(F)(F)F)cc1Cl)[C@H]1[C@H](c2ccccc2)C12CCCC2 (relative stereo)
207 to 208	CC1(C)CC(c2ccccn2)c2cc(C(=O)O)ccc2O1 (stereo unspecified)
156 to 158	Cc1c(CCN(C(=O)C(F)(F)F)c2cc3ccccc3n2C)ncn1S(=O)(=O)N(C)C
151 to 152	CCCCCCCCCCOc1ccc(C(=O)O)cc1C12CC3CC(CC(C3)C1)C2
207 to 208	Nc1cc(Br)cc(OCc2ccccc2)c1NC(=O)C1CC1
144 to 147	Cc1cc(C)c2cc3c(cc2n1)C(NCCc1ccccc1)C(O)C(C)(C)O3 (stereo unspecified)
280 to 281	CC(=O)Nc1ccc(S(=O)(=O)Nc2nnc(S(N)(=O)=O)s2)cc1
84 to 85.5	CCn1c(C)nc2cc(C(F)(F)F)c(OC)c([N+](=O)[O-])c21
85.9 to 90.5	COc1nc(C)c([N+](=O)[O-])cc1C
278 to 280	CC(=O)Nc1ccc(N)c2c1C(=O)C(O)(c1ccc(C(C)C)cc1O)C2=O (stereo unspecified)
177 to 180	CCOC(=O)c1cn(CC)c2c(C)c(F)c(F)cc2c1=O
238 to 242	CCOC(=O)c1n[nH]c2ncc(I)cc2c1=O
133 to 135	O=C(Nc1nc2ccc(OCc3c(Cl)cccc3Cl)cc2[nH]1)C1CC1
237 to 239	O=C1NC(=O)C(c2ccccc2)(c2ccc(Br)cc2)N1 (stereo unspecified)
130	C[C@@]1(c2ccccc2)OC(c2ccccc2)=NC[C@H]1O (racemic)
109 to 110	COc1cccc(C(=O)C(=NN)c2cccc(OC)c2)c1
121	CCCCCc1ccc(CCc2ccc(-c3ccc(OC(F)F)cc3)cc2)cc1
176	C[C@]12C[C@H](c3ccc(OCCCCCCCl)cc3)[C@@H]3c4ccc(O)cc4CC[C@H]3[C@@H]1CC[C@@H]2O
220 to 223	O=[N+]([O-])c1c(O)nc(N2CCSCC2)nc1O
41	[N-]=[N+]=NS(=O)(=O)c1cccc(C(=O)Cl)c1
116 to 118	CCn1ncc(C(=O)c2ccc(S(C)(=O)=O)c(COC)c2C)c1O
169 to 171	NNc1ccc(S(N)(=O)=O)cc1
280 to 282	O=C(c1ccccc1)N1CC=C(c2c[nH]c3ccc([N+](=O)[O-])cc23)CC1

melting point [°C]	SMILES
69 to 70	C#CCN(C)c1nc(CO)cs1
127 to 130	O=C1c2cc(OCc3ccc4ccccc4n3)ccc2SCC1Cc1ccccc1 (stereo unspecified)
128	Clc1nccc(-n2ccnc2)n1
148 to 149	COc1cccc(CC(=O)O)c1OCCCc1cn(-c2ccc(C(C)=O)cn2)nc1C(C)C
60 to 62	Cc1cccc(-c2ccc(OS(=O)(=O)C(F)(F)F)cc2C=O)c1
145 to 146	CSc1ccc(-c2nnc(Cl)cc2-c2ccc(Cl)cc2)cc1
188 to 189	Cn1ncc(/C=C/C(=O)Nc2ccc(CC(C)(C)O)cc2)c1-c1ccc(F)cc1
270 to 272	CCS(=O)(=O)c1ccc2c3c(cccc13)C(=O)N2
159 to 160	CC(C)OC(=O)C1=C2SCC(=CC(=O)N(C)C)N2CC1
90	Fc1cccc(F)c1-c1nc(C(F)(F)F)n(-c2ccccc2C(F)(F)F)n1
231 to 233	O=C1CCC(N2Cc3c(OCc4ccc(CNC5CCOCC5)cc4)cccc3C2=O)C(=O)N1 (stereo unspecified)
96 to 98	CCN(CC)C(=O)n1ccc(Sc2cccc(C)c2)n1
142 to 144	CCOC(=O)C(C=O)Cc1ccc(C)nc1 (stereo unspecified)
159 to 160	OC1(c2ccc(F)cc2)N=C2SCCN2C1c1ccc(F)cc1 (stereo unspecified)
154 to 156	COc1ccc(-c2ccnn2-c2ccc(N3C[C@H](CNC(C)=O)OC3=O)cc2F)cc1OC
212 to 214	COC(=O)c1cccc2c(C#N)c[nH]c12
91 to 93	O=[N+]([O-])c1cc(CCC(O)=S)cc(O)c1O
161 to 162	Cc1cccc(-c2cc(O)c(Sc3ccccc3C(C)C)c(=O)o2)c1
115	COC(=O)c1c(Oc2cccc(C)c2C)nn(C(=O)OC)c1C
> 250	COc1cc(-c2nc(Nc3ccc(C)cc3)c3ccccc3n2)cc(OC)c1OC
180 to 182	CC(=O)NCCn1ccc(=O)c(OCc2ccccc2)c1C(O)c1ccccc1 (stereo unspecified)
163 to 165	CC1c2ccccc2-c2ccccc2N1S(=O)(=O)c1ccc(O)c(O)c1 (stereo unspecified)
100 to 102	CC1=CC(COC(c2ccccc2)(c2ccccc2)c2ccccc2)OC1O (stereo unspecified)

melting point [°C]	SMILES
188 to 189	Cc1c(SCc2ccco2)ccnc1CSc1nc2ccccc2[nH]1
75 to 76	COC(=O)c1nc(Br)cc(Br)c1OCc1ccccc1
189 to 190	N#Cc1cc(-c2nc3cncnc3s2)ccc1Oc1cccc(F)c1
138	C/C(=C\c1ccc(OC(C)C)cc1Oc1ncc(C(F)(F)F)cc1Cl)C(=O)NS(=O)(=O)NCCOC(C)C
147 to 151	COC(=O)c1ccc(-c2nnc(-c3ccc(C(C)C)cc3)s2)cc1
265 to 267	Cc1noc([C@@H]2CSCc3c(O)cc(O)c(C)c3C(=O)OC[C@@H](O)C(=O)N2)n1
168 to 169	CS(=O)(=O)c1ccc(NC(=O)c2ccccc2Br)cc1
99 to 102	Cc1cc(C#N)c(Nc2ccccc2[N+](=O)[O-])s1
173 to 175	C(=Nc1ccc(Nc2ccccc2)cc1)Nc1ccc(Nc2ccccc2)cc1
233 to 234	CC(=O)NC1=C(N)C(=O)c2ccccc2C1=O
163 to 164	Oc1cc2c(cc1O)OCC(c1ccc3c(c1)OCO3)C2 (stereo unspecified)
88 to 92	CCC(=S)N(c1c(C)cccc1C)C(C)C(C)=S (stereo unspecified)
80 to 81	COc1c(F)c(C)c(F)c(OC)c1CO
132 to 137	CON1C(C)(C)CC(OC(=O)CCc2cc(-n3nc4ccc(Cl)cc4n3)c(O)c(C(C)(C)C)c2)CC1(C)C
139 to 140	COC(=O)C(=O)Nc1cc(OCCCOc2ccc(C(C)=O)c(O)c2CCC(F)(F)F)c(Br)cc1C
46 to 47	CCCCCCCCCCCCCCCCSC(N)C(CN)C(=O)OC(C)(C)C (stereo unspecified)
> 250	FC(F)(F)Oc1ccc(-c2ccc3[nH]c4c(ccc5cc[nH]c54)c3c2)cc1
155	COc1ccc(S(=O)(=O)N2C(=O)C(c3ccccc3OC)(N3Cc4ccccc4C[C@H]3C(=O)N(C)C)c3cc(Cl)c(Cl)cc32)c(OC)c1 (stereo partly specified)
290 to 292	O=c1[nH]nc(-c2ccccc2)c(-c2ccccc2)c1-c1ccccc1
134 to 135	CCOC(=O)c1cn(C)nc1OCc1ccc(OCc2nc(-c3ccccc3)oc2C)c(OC)c1
221 to 223	COc1ncccc1Nc1c(NC(NC(=O)c2cc(F)cc(F)c2)C(C)(C)C)c(=O)c1=O (stereo unspecified)
92 to 93	Cc1c(C)c2c(c(C)c1Br)C(=O)C(C)(C)O2

SMILES	melting point [°C]
COc1ccccc1C(=O)CN1C(=O)C(NC(=O)Nc2cccc(-c3nnn[nH]3)c2)N=C(c2ccccc2F)c2cccc(C)c21 (stereo unspecified)	194 to 195
CCCN(CCC)C1Cc2c[nH]c3ccc(C(=O)CC)c(c23)C1 (stereo unspecified)	149 to 150
CN1Cc2c(C(=O)OCCO)ncn2-c2ccc(F)cc2C1=O	202 to 204
